The values that follow are results of earlier work, collected in patent US20100021614A1, “COMPOSITION FOR PROMOTING BIOABSORPTION OF FLAVONOID, FOOD/BEVERAGE FOR PROMOTING BIOABSORPTION OF FLAVONOID USING THE COMPOSITION, AND METHOD FOR PRODUCTION OF THE FOOD/BEVERAGE” (priority 2006, published 2010).

The conditions of this data set: Wakui et al., J. Chromatog., 575, 131-136 (1992).

Structures are written as SMILES.

As for `O=c1cc(-c2ccccc2)oc2cc(O)c(O)c(O)c12` [baicalein], the “fraction of the amount administered that is absorbed” value is given as 1/300.
